Experimental data published in ChEMBL document CHEMBL1201862, “PubChem BioAssay data set” (2004).
Active and inactive are the calls of the source.

Experiments:
[1] = biological target: G-protein coupled receptor 55 (Homo sapiens, UniProt Q9Y2T6); assay: GPR55 antagonists blocking LPI-driven arrestin recruitment, primary screen, imaging, U2OS, beta-arrestin-GFP, LPI agonist (AID 2013); assay type: functional;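 also: antagonist potency measured as reduced agonist-driven arrestin aggregation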
[2] = cytotoxicity toward DRD oncogenic fibroblasts, dose response, cell-based, non-viral oncogenic, luminescence (AID 1934); assay type: functional; conditions: Homo sapiens
[3] = Luminescence Cell-Based Dose Confirmation HTS to Identify Inhibitors of 5'UTR Stem-Loop Driven Alpha-Synuclein mRNA Translation in H4 Neuroglioblastoma Cells. [Related pubchem assays: 1827 (Project Summary), 1813 (Primary HTS)]; assay type: functional
BJ [4] = assay: cytotoxicity toward BJ-TERT-LT-ST fibroblasts, dose response, cell-based, RAS-independent, luminescence (AID 1935); assay type: functional; conditions: Homo sapiens;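 also: BJ fibroblasts immortalized with TERT plus LT and ST oncogenes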
[5] = Luminescence Cell-Based Dose Response HTS to Identify Activators of Luciferase Translation or Activity in H4-C Neuroglioblastoma Cells. [Related pubchem assays: 1829 (Project Summary), 1814 (Primary HTS)]; assay type: functional
[6] = inhibitors of firefly luciferase expression or activity, dose response, H4 neuroglioma cells, luminescence (AID 1990); assay type: functional, cell-based
[7] = Luminescence Cell-Based Dose Response HTS to Identify Activators of 5'UTR Stem-Loop Driven Prion Protein mRNA Translation in H4-C Neuroglioblastoma Cells. [Related pubchem assays: 1829 (Project Summary), 1814 (Primary HTS)]; assay type: functional
BJ [8] = assay: cytotoxicity toward Ras-transformed BJeLR fibroblasts, dose response, cell-based, alamar blue fluorescence, cherrypicked samples (AID 2631); assay type: functional; conditions: Homo sapiens;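 also: confirmatory dose-response assay in RAS-dependent BJ fibroblasts engineered with TERT, LT and ST, with cytotoxicity read by fluorescence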
[9] = Luminescence Cell-Based Dose Response HTS to Identify Inhibitors of 5'UTR Stem-Loop Driven Prion Protein mRNA Translation in H4 Neuroglioblastoma Cells. [Related pubchem assays: 1827 (Project Summary), 1813 (Primary HTS)]; assay type: functional
BJ [10] = assay: cells; assay type: functional, cell-based; conditions: Homo sapiens
[11] = Luminescence Cell-Based Dose Retest to Confirm Activators of 5'UTR Stem-Loop Driven Alpha-Synuclein mRNA Translation in H4 Neuroglioblastoma Cells. [Related pubchem assays (depositor defined):AID1813, AID1829]; assay type: functional
[12] = inhibitors of SNCA 5'UTR-driven reporter translation, confirmation, H4 neuroglioma cells, luminescence (AID 1988); assay type: functional, cell-based
[13] = Luminescence Cell-Based Dose Response HTS to Identify Inhibitors of Luciferase Translation or Activity in H4-C Neuroglioblastoma Cells. [Related pubchem assays: 1813 (Primary HTS), 1827 (Project Summary)]; assay type: functional
BJ [14] = assay: cytotoxicity toward BJ-TERT fibroblasts, dose response, cell-based, RAS-independent, luminescence (AID 1933); assay type: functional; conditions: Homo sapiens
[15] = Luminescence Cell-Based Dose HTS Response to Identify Inhibitors of 5'UTR Stem-Loop Driven Prion Protein mRNA Translation in H4-C Neuroglioblastoma Cells. [Related pubchem assays (depositor defined):AID1814, AID1827]; assay type: functional
CAAX prenyl protease 2 = CAAX prenyl protease 2 (Saccharomyces cerevisiae S288c, UniProt Q03530); assay type: biochemical
Trypsin = Trypsin (Sus scrofa, UniProt P00761); assay: porcine trypsin inhibitors, dose response, selectivity assay for Rce1 protease inhibitor project, biochemical, quenched peptide fluorescence, cherry-pick (AID 488789)
[16] = cytotoxicity toward NIH3T3 fibroblasts, dose response, counter-screen, cell-based, ATP luminescence, mouse fibroblasts (AID 2010); assay type: functional;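 also: cells exposed to compound for about 90 hours before reading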
[17] = biological target: T1, Voltage-gated N-type calcium channel alpha-1B subunit/Amyloid beta A4 precursor protein-binding family A member 1 (Homo sapiens, UniProt Q00975+Q02410); assay type: protein assay
[18] = biological target: T1, Voltage-gated N-type calcium channel alpha-1B subunit/Amyloid beta A4 precursor protein-binding family A member 1; assay type: protein assay; remark: listed apart in the source
[19] = biological target: T2, DNA repair protein RAD52 homolog (Homo sapiens, UniProt P43351); assay type: functional, biochemical
T2 sequence (P43351 whole entry): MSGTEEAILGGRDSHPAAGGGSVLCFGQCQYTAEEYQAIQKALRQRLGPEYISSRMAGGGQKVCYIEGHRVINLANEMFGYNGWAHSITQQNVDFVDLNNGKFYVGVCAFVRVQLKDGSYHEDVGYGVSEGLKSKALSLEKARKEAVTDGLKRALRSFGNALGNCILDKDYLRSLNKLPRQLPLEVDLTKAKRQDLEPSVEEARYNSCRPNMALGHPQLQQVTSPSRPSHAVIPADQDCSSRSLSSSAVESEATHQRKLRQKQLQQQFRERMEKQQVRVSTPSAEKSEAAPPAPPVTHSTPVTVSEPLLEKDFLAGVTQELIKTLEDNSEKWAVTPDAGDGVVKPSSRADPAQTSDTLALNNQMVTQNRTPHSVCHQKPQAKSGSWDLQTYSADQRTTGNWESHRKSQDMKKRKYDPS

[20] = biological target: T3, Short transient receptor potential channel 4 (Mus musculus, UniProt Q9QUQ5); assay: mouse TRPC4 channel activators, dose response, cell-based, HEK293 TRPC4/mu-opioid, Fluo-4 calcium (AID 434937); assay type: functional
T3 sequence (Q9QUQ5 whole entry): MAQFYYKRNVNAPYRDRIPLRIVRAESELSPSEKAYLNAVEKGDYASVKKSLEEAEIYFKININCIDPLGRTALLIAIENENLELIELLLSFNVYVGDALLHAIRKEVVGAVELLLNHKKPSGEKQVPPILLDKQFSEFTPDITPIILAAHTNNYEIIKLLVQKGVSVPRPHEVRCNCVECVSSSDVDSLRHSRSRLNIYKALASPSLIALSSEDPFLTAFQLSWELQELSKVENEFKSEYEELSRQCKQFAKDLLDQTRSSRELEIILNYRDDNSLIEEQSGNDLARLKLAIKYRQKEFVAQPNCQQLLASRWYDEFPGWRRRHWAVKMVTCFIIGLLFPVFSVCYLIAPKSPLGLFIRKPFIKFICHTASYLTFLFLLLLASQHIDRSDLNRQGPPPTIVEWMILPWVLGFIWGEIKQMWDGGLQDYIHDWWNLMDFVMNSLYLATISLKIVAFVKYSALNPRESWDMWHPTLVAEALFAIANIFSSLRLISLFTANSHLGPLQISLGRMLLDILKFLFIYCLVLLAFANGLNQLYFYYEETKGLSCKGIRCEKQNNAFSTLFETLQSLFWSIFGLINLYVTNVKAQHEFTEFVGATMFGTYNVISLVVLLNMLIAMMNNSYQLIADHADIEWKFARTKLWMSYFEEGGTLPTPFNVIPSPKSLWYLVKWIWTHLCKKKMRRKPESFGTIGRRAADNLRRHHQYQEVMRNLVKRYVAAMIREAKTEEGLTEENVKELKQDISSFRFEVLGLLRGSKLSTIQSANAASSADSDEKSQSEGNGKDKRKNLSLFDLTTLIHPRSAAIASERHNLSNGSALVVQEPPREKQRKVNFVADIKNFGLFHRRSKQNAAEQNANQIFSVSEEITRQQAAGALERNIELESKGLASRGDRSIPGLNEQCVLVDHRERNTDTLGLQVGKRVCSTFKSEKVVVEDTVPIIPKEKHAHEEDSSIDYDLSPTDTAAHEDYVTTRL

[21] = test system: Streptococcus sp. 'group A'; assay: growth inhibition of control SK(-) GAS strain, dose response, counter-screen for streptokinase expression inhibitor project, luminescence, kanamycin, BacTiterGlo, confirmation (AID 1900); assay type: functional, organism-based
H9c2 = assay: cells; assay type: functional, cell-based; conditions: Rattus norvegicus, H9c2, Myocardium;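 also: confirmatory concentration-response retest of ultra-high-throughput screening hits for modulation of myocardial damage; cell death induced by hydrogen peroxide oxidative stress; compound pretreatment for 60 min then peroxide exposure for 2 h; potency is for protecting the cells against peroxide damage rather than for killing them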
Streptococcus = assay: Group A Streptococcus viability loss, dose response, counter-screen for streptokinase expression inhibitor project, luminescence, BacTiterGlo (AID 1915); assay type: functional, organism-based;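 also: potency for reduction of bacterial viability or growth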
Beta-galactosidase = Beta-galactosidase (Escherichia coli, UniProt Q8VNN2); assay: beta-galactosidase enzyme inhibitors and activators, dose response, artefact control for CCR6 antagonist project, biochemical, E. coli enzyme, set 3 (AID 504712); assay type: functional
[22] = inhibitors of intracellular T. cruzi replication, confirmation, NIH3T3 host cells, beta-gal luminescence (AID 2044); assay type: functional, cell-based;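 also: intracellular parasites grown in NIH/3T3 mouse fibroblasts as host cells; luminescent beta-galactosidase reporter signal from transgenic T. cruzi replicating inside host cells; inhibitors lower the luminescence signal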

T1 sequence (Q00975 whole entry): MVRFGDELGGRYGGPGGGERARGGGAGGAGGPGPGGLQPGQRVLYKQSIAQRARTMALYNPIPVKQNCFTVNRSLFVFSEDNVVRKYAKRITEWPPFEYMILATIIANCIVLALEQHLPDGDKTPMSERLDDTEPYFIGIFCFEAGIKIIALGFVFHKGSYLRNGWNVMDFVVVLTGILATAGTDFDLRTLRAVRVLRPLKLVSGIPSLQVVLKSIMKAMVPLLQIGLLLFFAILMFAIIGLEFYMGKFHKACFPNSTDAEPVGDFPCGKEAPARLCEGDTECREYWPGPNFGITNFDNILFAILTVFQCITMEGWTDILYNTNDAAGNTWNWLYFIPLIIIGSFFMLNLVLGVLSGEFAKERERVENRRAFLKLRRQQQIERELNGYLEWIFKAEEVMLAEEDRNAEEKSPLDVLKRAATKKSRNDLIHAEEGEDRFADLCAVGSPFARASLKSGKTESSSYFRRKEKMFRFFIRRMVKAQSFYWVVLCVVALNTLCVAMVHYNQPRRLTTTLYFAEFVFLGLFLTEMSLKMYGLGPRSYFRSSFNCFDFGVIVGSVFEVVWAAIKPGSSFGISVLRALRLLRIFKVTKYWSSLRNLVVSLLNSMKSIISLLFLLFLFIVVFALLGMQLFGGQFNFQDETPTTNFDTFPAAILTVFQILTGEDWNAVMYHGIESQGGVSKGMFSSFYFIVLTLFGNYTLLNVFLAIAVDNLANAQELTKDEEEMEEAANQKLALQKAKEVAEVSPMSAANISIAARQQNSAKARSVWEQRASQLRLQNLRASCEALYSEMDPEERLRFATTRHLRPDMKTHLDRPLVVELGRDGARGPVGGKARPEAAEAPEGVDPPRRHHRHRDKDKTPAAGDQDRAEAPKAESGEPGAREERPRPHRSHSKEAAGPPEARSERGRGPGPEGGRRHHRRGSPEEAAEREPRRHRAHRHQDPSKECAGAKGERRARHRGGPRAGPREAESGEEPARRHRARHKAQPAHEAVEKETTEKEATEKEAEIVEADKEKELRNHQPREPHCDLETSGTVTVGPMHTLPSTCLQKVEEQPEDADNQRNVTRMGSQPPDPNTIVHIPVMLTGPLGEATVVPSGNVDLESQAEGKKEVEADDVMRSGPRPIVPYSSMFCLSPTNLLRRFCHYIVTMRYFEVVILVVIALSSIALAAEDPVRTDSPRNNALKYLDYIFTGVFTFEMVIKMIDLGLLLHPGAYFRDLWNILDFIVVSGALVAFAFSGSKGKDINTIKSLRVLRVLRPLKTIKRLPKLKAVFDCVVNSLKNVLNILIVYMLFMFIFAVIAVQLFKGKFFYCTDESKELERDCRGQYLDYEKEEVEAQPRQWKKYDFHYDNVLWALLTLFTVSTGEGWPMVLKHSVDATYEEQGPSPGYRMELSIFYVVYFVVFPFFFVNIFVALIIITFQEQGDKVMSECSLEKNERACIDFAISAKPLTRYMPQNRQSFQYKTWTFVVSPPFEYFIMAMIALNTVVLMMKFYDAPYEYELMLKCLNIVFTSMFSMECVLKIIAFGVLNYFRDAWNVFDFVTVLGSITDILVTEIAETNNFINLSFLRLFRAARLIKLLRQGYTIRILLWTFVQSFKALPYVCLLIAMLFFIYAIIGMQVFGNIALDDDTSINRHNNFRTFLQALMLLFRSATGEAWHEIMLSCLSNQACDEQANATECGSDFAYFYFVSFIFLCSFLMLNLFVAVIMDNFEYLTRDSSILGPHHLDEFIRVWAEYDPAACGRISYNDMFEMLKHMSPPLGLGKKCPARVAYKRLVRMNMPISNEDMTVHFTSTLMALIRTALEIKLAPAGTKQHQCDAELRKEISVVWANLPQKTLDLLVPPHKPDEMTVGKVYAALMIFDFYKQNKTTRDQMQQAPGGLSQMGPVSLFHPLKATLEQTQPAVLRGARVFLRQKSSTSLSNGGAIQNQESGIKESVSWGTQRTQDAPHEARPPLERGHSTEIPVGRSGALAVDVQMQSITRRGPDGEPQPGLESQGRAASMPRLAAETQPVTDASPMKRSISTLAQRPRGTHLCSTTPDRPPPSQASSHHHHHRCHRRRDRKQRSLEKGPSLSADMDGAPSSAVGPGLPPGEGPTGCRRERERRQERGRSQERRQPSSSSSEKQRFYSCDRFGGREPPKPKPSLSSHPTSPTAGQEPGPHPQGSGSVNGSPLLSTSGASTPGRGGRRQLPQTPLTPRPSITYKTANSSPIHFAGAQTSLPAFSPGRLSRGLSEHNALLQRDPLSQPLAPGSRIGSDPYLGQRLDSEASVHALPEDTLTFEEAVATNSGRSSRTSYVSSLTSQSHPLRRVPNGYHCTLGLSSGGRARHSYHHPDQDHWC
T1 sequence (Q02410 whole entry): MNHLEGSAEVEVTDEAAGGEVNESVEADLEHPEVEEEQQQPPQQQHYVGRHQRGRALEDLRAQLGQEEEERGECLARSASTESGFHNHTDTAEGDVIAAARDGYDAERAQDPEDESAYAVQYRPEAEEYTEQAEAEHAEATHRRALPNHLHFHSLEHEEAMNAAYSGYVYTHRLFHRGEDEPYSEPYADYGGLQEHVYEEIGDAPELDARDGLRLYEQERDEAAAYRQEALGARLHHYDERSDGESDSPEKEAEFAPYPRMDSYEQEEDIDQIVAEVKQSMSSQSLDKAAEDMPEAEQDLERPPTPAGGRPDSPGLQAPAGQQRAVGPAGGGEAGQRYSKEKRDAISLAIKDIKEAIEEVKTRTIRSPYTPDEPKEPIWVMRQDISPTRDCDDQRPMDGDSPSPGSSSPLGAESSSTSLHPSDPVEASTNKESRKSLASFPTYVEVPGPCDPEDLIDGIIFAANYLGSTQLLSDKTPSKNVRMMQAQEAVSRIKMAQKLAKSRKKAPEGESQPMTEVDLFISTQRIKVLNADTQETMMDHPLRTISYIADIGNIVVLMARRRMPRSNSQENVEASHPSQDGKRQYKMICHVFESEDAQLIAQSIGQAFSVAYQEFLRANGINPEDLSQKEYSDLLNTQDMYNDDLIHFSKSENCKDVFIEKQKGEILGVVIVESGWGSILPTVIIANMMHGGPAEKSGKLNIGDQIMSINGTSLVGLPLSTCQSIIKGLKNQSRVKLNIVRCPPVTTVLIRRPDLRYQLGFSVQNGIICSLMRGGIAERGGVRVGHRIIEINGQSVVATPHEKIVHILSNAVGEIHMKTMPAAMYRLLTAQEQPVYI
G-protein coupled receptor 55, sequence (Q9Y2T6 whole entry): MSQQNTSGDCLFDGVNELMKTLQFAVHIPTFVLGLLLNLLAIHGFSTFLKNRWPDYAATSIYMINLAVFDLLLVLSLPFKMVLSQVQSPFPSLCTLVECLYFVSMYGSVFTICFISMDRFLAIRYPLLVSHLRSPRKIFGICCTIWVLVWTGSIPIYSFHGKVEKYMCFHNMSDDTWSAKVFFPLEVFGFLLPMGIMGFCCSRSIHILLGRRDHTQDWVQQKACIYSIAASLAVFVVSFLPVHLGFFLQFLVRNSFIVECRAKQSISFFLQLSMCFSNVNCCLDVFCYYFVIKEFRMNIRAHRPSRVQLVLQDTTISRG
Beta-galactosidase, sequence (Q8VNN2 whole entry): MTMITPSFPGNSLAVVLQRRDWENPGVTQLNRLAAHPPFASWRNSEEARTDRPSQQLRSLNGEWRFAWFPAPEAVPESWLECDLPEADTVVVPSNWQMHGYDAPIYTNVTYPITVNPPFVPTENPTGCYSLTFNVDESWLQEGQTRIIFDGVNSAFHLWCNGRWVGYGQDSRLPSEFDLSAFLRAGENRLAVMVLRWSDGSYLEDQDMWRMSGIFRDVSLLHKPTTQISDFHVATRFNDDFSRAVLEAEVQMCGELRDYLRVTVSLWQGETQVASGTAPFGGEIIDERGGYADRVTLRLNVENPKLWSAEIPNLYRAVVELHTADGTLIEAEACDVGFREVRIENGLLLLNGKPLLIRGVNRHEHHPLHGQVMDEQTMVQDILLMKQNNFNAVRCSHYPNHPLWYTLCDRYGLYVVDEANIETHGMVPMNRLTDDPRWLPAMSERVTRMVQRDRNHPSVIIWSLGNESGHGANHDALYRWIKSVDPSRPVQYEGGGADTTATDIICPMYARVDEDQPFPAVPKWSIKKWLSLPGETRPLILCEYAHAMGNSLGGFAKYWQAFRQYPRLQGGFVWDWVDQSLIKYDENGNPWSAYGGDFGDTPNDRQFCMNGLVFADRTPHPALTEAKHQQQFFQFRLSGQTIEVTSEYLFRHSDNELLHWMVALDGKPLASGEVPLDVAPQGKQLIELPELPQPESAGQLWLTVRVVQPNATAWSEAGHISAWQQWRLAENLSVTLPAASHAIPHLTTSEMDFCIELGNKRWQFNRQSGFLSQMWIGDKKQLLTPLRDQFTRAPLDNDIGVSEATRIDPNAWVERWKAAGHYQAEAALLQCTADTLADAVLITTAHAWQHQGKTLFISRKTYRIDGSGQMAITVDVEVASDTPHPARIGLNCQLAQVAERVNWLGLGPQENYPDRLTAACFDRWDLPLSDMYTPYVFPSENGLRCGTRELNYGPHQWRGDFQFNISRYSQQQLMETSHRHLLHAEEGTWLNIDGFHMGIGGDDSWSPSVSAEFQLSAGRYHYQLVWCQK
Trypsin, sequence (P00761 whole entry): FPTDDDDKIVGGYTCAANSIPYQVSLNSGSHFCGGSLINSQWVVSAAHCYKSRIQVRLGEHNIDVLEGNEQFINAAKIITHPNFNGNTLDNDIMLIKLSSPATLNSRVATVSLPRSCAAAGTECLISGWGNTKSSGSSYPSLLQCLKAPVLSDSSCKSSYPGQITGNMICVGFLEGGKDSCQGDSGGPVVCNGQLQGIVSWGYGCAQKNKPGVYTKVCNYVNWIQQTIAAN
CAAX prenyl protease 2, sequence (Q03530 whole entry): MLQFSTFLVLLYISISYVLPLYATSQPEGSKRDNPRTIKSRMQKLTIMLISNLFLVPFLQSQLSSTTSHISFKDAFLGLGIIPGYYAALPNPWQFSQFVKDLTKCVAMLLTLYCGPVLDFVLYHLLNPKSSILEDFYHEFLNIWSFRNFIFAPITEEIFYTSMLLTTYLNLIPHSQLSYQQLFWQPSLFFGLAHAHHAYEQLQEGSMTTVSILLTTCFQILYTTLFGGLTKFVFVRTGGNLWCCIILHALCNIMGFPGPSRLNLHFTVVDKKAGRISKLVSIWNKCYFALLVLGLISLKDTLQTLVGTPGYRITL

CCOC(=O)c1cc(C#N)c(Oc2ccc(F)cc2)nc1-c1ccccc1
IC50 [1]: 3.03 µM (active)

COC(=O)C1CC23C=CCN4CCC5(c6ccccc6NC15C2C)C43 (stereo not drawn)
EC50 [2]: 0.495 µM (active)
EC50 [3]: 7.37 µM (active)
EC50 (BJ [4]): 0.574 µM (inconclusive)
EC50 [5]: 1.07 µM (inconclusive)
EC50 [6]: 4.2 µM (active)
EC50 [7]: 1.13 µM (inconclusive)
EC50 (BJ [8]): < 0.104 µM (active)
EC50 [9]: 2.28 µM (active)
EC50 (BJ [10]): 7.77 µM (active)
EC50 [11]: 7.37 µM (inconclusive)
EC50 [12]: 0.134 µM (active)
EC50 [13]: 1.07 µM (active)
EC50 (BJ [14]): 0.612 µM (active)
EC50 [15]: 1.13 µM (active)

COc1ccc(C2CC(c3ccccc3)=NN2C(=O)c2ccc(Cl)c([N+](=O)[O-])c2)cc1 (stereo not drawn)
AC50 (CAAX prenyl protease 2): 26.1 µM (active)
AC50 (Trypsin): 77.7 µM (active)
EC50 [16]: 32.6 µM (active)

CC1=C(C(=O)O)N2C(=O)C(NC(=O)CCCC(=O)O)C2SC1 (stereo not drawn)
IC50 [17]: > 50 µM (inactive)
IC50 [18]: > 56.8 µM (not active)

CCN(c1ccccc1)S(=O)(=O)c1ccc(C(=O)N(CCCN(C)C)c2nc3cc4c(cc3s2)OCO4)cc1
AC50 [19]: 11.1 µM (active)
EC50 [20]: 5.31 µM (active)

Cc1cc(C)c(OCC(=O)Nc2nc(-c3ccccn3)cs2)c(C)c1
EC50 [21]: 2.75 µM (active)
IC50 (H9c2): 10 µM (active)
EC50 (Streptococcus): 5.71 µM (active)
IC50 (Beta-galactosidase): > 66.6 µM (inactive)
EC50 [22]: 2.47 µM (active)
EC50 [16]: 8.87 µM (active)
